Experimental data from US20240050370A1, “TRIPLE STABILIZER SYSTEM” (Bayer Aktiengesellschaft, priority 2022, published 2024).

Test: Viscosity by rotational viscometry (MCR 302e, concentric cylinder)
Format: physicochemical
Conditions: 2 wt % HPC, 0.2 wt % anionic surfactant, PVPK12 0 to 16 wt %
Description: Viscosity was measured with rotational viscometry with a modular compact rheometer (MCR) 302e (Anton Paar). A concentric cylinder geometry was used. Shear rate was varied logarithmic from 0.1 1/s to 1000 1/s. 6 measurement points per decade were used. The measurement time was varied from 10 s for a shear rate of 0.1 1/s and is for 1000 1/s. Shear rate vs. Shear stress was plotted. The slope described the viscosity. The shear rate independent viscosity was evaluated, and the middle value was used.
Viscosity was measured with rotational viscometry with a modular compact rheometer (MCR) 302e (Anton Paar). A concentric cylinder geometry was used. Shear rate was varied logarithmic from 0.1 1/s to 1000 1/s. 6 measurement points per decade were used. The measurement time was varied form 10 s for a shear rate of 0.1 1/s and is for 1000 1/s.

Row | Impact of anionic surfactant on viscosity reduction induced by PVPK12 addition (FIG. 5) | SMILES
1 | do not show a reduction of viscosity | C[C@H](CCC(=O)[O-])[C@H]1CC[C@H]2[C@@H]3CC[C@@H]4C[C@H](O)CC[C@]4(C)[C@H]3C[C@H](O)[C@]12C.[Na+] [Na-Deoxycholate]
2 | strongest impact | CCCCCCCCCCCCOS(=O)(=O)[O-].[Na+] [SDS, sodium dodecyl sulfate]
